Drawing on patent publication US10144742B2 (Millennium Pharmaceuticals, Inc., priority 2014, dated 2018), this text covers IC50 and inhibition for 19 compounds.

The target in one assay is hNAMPT protein (Homo sapiens (Human), UniProt P43490). Put plainly: NAMPT enzyme assay (TR-FRET/HTRF, BodiPY ligand, anti 6His-Tb). As to conditions: for IC50: NAMPT IC50 range class, read-out: IC50; for inhibition at 1 µM: compound concentration 1 μM, read-out: Percent Inhibition. It is filed as binding. The text has this: As discussed above, the invention provides compounds that are useful as inhibitors of the enzyme NAMPT. The NAMPT inhibition of a compound of the invention can be measured using a variety of methods known in the art. For example, the ability of a compound of the invention to inhibit NAMPT enzyme activity can be measured using a homogeneous time resolved fluorescence (HTRF) assay using hNAMPT protein and anti 6His-Tb in buffer treated with a compound of the invention (or control e.g., DMSO) and BodiPY ligand. The TR-FRET signal can be measured using a high throughput microplate reader (e.g., Pherastar). Excitation can be carried out at 320 nm. The percent inhibition value at a single concentration of compound of the invention can be calculated relative to a control treated sample. A concentration response curve can be generated for each compound of the invention and the curve fitted to generate an IC50 value. […] Cat. No. […] To this solution is added test compounds or vehicle control (DMSO) and BodiPY ligand (structure below). The plate is shaken for 1-2 min, sealed and incubated for 1 hour at rt in the dark. The TR-FRET signal is measured using BMG Pherastar (Lanthascreen protocol on BMG Pherastar). Excitation was carried out at 320 nm, and the ratio of emission of BodiPY (520 nm) to terbium (486 nm) was determined. Concentration response curves are generated by calculating the excitation increase in test compound-treated samples relative to DMSO-treated controls. For the assay method described above, test compound percent inhibition values at a single concentration are calculated relative to control (DMSO) treated samples. Compound concentration response curves are fitted to generate IC50 values from those curves. One skilled in the art will appreciate that these values generated either as percentage inhibition at a single concentration or IC50 values are subject to experimental variation.
A general note: In TR-FRET formats the signal depends on donor and acceptor labels being close together.

Another assay relates to PC3 cells. Briefly: PC3 growth inhibition (Cell-titer glo, 72 hours). Type of assay: cell-based. Conditions: Homo sapiens, PC-3, PC3 cells, 72 hours, Cell-titer glo, read-out: Percent Inhibition (PC3 growth inhibition); for inhibition at 1.667 µM: compound concentration 1.667 μM; for inhibition at 1 µM: compound concentration 1 μM. On the procedure: The ability of a compound of the invention to inhibit the growth of cells can be measured using a variety of methods known in the art. For example, the ability of a compound of the invention to inhibit the growth of PC3 cells can be measured. PC3 cells can be plated and incubated overnight under CO2. For each measurement, a compound of the invention (or vehicle e.g., DMSO) can be diluted with AIM serum free medium and added to the cell plate. The cell plate can then be incubated for 72 h under CO2. Cell-titer glo solution can be added and the plates can be incubated protected from light and the amount of luminescences can be measured. Concentration response curves can be generated by calculating the luminescence increase in test compound treated samples relative to DMSO-treated controls. Percentage remaining viability values at a single concentration can be measured. Growth inhibition (GI50) or cell viability (LD50) values can be determined from those curves.
Compounds of the invention were assayed to measure PC3 growth inhibition at a concentration of 1 μM or 1.667 μM (Table 3). To measure PC3 growth inhibition, PC3 cells that were maintained in PRMI1640 growth medium (Life Technologies; Cat. No. 11875) at 37° C. under 5% CO2 are trypsinized and diluted at a density of 8×10^4 cells/ml, 25 ul per well of cells and plated in 384-well black tissue culture plate. The cells are incubated overnight at 37° C. under 5% CO2. For each measurement, a test compounds or vehicle control (DMSO) are diluted with AIM serum free medium and added to the cell plate. Incubate for 72 hours at 37° C. under 5% CO2. 25 μl Cell-titer glo solution (Promega; Cat. No. G8462) is added and the cell plates are incubated for 10 minutes protected from light. The luminescence is measured. Concentration response curves are generated by calculating the luminescence increase in test compound-treated samples relative to DMSO-treated controls. Percentage remaining viability values at a single concentration, growth inhibition (GI50) or cell viability (LD50) values are determined from those curves. One skilled in the art will appreciate that these values are subject to experimental variation.

Bounds are passed on as bounds.

For orientation: IC50 means the point on the concentration scale where inhibition reaches its midpoint. A word on the inhibition: it is the drop in the measured response relative to a control, in per cent.

Sequence of hNAMPT protein (P43490 whole entry): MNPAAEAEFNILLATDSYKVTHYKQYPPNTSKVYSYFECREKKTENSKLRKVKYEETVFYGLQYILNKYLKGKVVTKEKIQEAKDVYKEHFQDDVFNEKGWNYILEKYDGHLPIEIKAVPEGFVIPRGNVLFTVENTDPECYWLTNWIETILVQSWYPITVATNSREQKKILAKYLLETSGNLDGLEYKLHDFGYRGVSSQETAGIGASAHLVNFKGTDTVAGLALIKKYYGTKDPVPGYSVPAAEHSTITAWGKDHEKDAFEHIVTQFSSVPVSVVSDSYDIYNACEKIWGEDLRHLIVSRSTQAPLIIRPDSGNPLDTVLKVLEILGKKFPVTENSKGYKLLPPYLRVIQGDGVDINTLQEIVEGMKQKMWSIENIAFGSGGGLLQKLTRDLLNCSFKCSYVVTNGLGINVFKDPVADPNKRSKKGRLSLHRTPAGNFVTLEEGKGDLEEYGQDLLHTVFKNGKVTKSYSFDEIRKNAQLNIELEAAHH

On to `O=C(NCCCc1ncc[nH]1)c1ccc2nc(N3CCC(N4CCOCC4)CC3)c(-c3ccccc3)nc2c1` [Compound I-18, N-[3-(1H-imidazol-2-yl)propyl]-2-[4-(morpholin-4-yl)piperidin-1-yl]-3-phenylquinoxaline-6-carboxamide], for which, on hNAMPT protein, the IC50 is less than 0.1 µM and the inhibition at 1 µM was 100%. The inhibition at 1.667 µM in the assay on PC3 cells stood at 2%.
With `O=C(NCCCn1ccnc1)c1ccc2nc(-c3ccc(F)cc3)c(-c3ccc(F)cc3)nc2c1` [Compound I-19, 2,3-bis(4-fluorophenyl)-N-[3-(1H-imidazol-1-yl)propyl]quinoxaline-6-carboxamide], on hNAMPT protein, the 50% inhibitory concentration (IC50) lay in the range of 0.1 to 0.5 µM and the inhibition at 1 µM turned out to be 82%. Also, the inhibition at 1 µM in the assay with PC3 cells is -1%.
`O=C(NCCc1c[nH]cn1)c1ccc2nc(-c3ccc(F)cc3)c(-c3ccc(F)cc3)nc2c1` [Compound I-20, 2,3-bis(4-fluorophenyl)-N-[2-(1H-imidazol-4-yl)ethyl]quinoxaline-6-carboxamide]: at hNAMPT protein, the 50% inhibitory concentration (IC50) fell in the range of 1 to 2 µM and the inhibition at 1 µM was determined as 42%. The inhibition at 1 µM with PC3 cells came to 111%.
The matching figures for `Cn1cc2c(n1)CN(C(=O)c1ccc3nc(-c4ccc(F)cc4)c(-c4ccc(F)cc4)nc3c1)CC2` [Compound I-22, [2,3-bis(4-fluorophenyl)quinoxalin-6-yl](2-methyl-2,4,5,7-tetrahydro-6H-pyrazolo[3,4-c]pyridin-6-yl)methanone]: 1 to 2 µM, 41% and 96%.
On to `O=C(NCCCc1ncc[nH]1)c1ccc2nc(N3CCC(N4CCOCC4)CC3)c(-c3ccc(F)cc3)nc2c1` [Compound I-23, 3-(4-fluorophenyl)-N-[3-(1H-imidazol-2-yl)propyl]-2-[4-(morpholin-4-yl)piperidin-1-yl]quinoxaline-6-carboxamide], for which, on hNAMPT protein, the IC50 is less than 0.1 µM and the inhibition at 1 µM was determined as 100%. Besides, in the assay with PC3 cells, the inhibition at 1.667 µM amounted to 2%.
For the compound `Cc1nc(C)c(-c2nc3ccc(C(=O)NCCCn4ccnc4)cc3nc2-c2ccccc2)s1` [Compound I-24, 2-(2,4-dimethyl-1,3-thiazol-5-yl)-N-[3-(1H-imidazol-1-yl)propyl]-3-phenylquinoxaline-6-carboxamide], the IC50 on hNAMPT protein was in the range of 0.1 to 0.5 µM. Moreover, the values for the inhibition at 1 µM on hNAMPT protein and in the assay on PC3 cells were 88% and -8%, respectively.
With `O=C(NCCCc1cccnc1)c1ccc2nc(N3CCC(O)CC3)c(-c3ccc(F)cc3)nc2c1` [Compound I-25, 3-(4-fluorophenyl)-2-(4-hydroxypiperidin-1-yl)-N-[3-(pyridin-3-yl)propyl]quinoxaline-6-carboxamide], at hNAMPT protein, the IC50 is less than 0.1 µM and the inhibition at 1 µM was determined as 98%. In addition, the inhibition at 1.667 µM with PC3 cells amounted to 2%.
Turning to `Cc1nccn1CCNC(=O)c1ccc2nc(-c3ccc(F)cc3)c(-c3ccc(F)cc3)nc2c1` [Compound I-26, 2,3-bis(4-fluorophenyl)-N-[2-(2-methyl-1H-imidazol-1-yl)ethyl]quinoxaline-6-carboxamide], on hNAMPT protein, the concentration for half-maximal inhibition (IC50) fell in the range of 1 to 2 µM and the inhibition at 1 µM stood at 37%. In addition, in the assay on PC3 cells, the inhibition at 1 µM was determined as 99%.
The matching figures for `CC(C)(C)OC(=O)NCC1CCN(C2CCN(c3nc4ccc(C(=O)NCCCn5ccnc5)cc4nc3-c3ccccc3)CC2)CC1` [Compound I-27, tert-butyl{[1′-(6-{[3-(1H-imidazol-1-yl)propyl]carbamoyl}-3-phenylquinoxalin-2-yl)-1,4′-bipiperidin-4-yl]methyl}carbamate]: less than 0.1 µM, 102% and -1%.
Take `O=C(c1ccc2nc(-c3ccc(F)cc3)c(-c3ccc(F)cc3)nc2c1)N1CCn2nncc2C1` [Compound I-28, [2,3-bis(4-fluorophenyl)quinoxalin-6-yl](6,7-dihydro[1,2,3]triazolo[1,5-a]pyrazin-5(4H)-yl)methanone]: on hNAMPT protein, the IC50 lay within 2 to 10 µM. The figures for the inhibition at 1 µM at hNAMPT protein and in the assay on PC3 cells were 19% and 94%, respectively.
For `O=C(c1ccc2nc(-c3ccc(F)cc3)c(-c3ccc(F)cc3)nc2c1)N1CCC(c2cccnc2)C1` (stereo not drawn) [Compound I-29, [2,3-bis(4-fluorophenyl)quinoxalin-6-yl][3-(pyridin-3-yl)pyrrolidin-1-yl]methanone], the IC50 at hNAMPT protein was 2 to 10 µM. The inhibition at 1 µM was found to be 36% at hNAMPT protein and 96% with PC3 cells.
For `O=C(NCCCn1ccnc1)c1ccc2nc(N3CCC4(CC3)COC4)c(-c3ccccc3)nc2c1` [Compound I-30, N-[3-(1H-imidazol-1-yl)propyl]-2-(2-oxa-7-azaspiro[3.5]non-7-yl)-3-phenylquinoxaline-6-carboxamide], at hNAMPT protein, the IC50 was in the range of 0.1 to 0.5 µM and the inhibition at 1 µM worked out at 83%. For the same compound, the inhibition at 1 µM in the assay on PC3 cells was -7%.
`CC1(C)CN(c2nc3ccc(C(=O)NCCCn4ccnc4)cc3nc2-c2ccccc2)CCO1` [Compound I-31, 2-(2,2-dimethylmorpholin-4-yl)-N-[3-(1H-imidazol-1-yl)propyl]-3-phenylquinoxaline-6-carboxamide]: at hNAMPT protein, the 50% inhibitory concentration (IC50) is less than 0.1 µM and the inhibition at 1 µM was found to be 89%. In the assay with PC3 cells, the inhibition at 1 µM was -7%.
The matching figures for `O=C(NCCCc1cccnc1)c1ccc2nc(-c3ccc(F)cc3)c(-c3ccc(F)cc3)nc2c1` [Compound I-32, 2,3-bis(4-fluorophenyl)-N-[3-(pyridin-3-yl)propyl]quinoxaline-6-carboxamide]: 0.1 to 0.5 µM, 78% and -5%.
The matching figures for `Cn1cnc2c1CN(C(=O)c1ccc3nc(-c4ccc(F)cc4)c(-c4ccc(F)cc4)nc3c1)CC2` [Compound I-33, [2,3-bis(4-fluorophenyl)quinoxalin-6-yl](3-methyl-3,4,6,7-tetrahydro-5H-imidazo[4,5-c]pyridin-5-yl)methanone]: 2 to 10 µM, 20% and 92%.
As to `C[C@@H]1CN(c2nc3cc(C(=O)NCCCn4ccnc4)ccc3nc2-c2ccccc2)C[C@H](C)O1` [Compound I-34, cis-3-[(2R,6S)-2,6-dimethylmorpholin-4-yl]-N-[3-(1H-imidazol-1-yl)propyl]-2-phenylquinoxaline-6-carboxamide], the IC50 on hNAMPT protein is 1 to 2 µM. The inhibition at 1 µM is 47% on hNAMPT protein and -6% with PC3 cells.
For `O=C(NCCCc1c[nH]cn1)c1ccc2nc(N3CCOCC3)c(-c3ccc(F)cc3)nc2c1` [Compound I-35, 3-(4-fluorophenyl)-N-[3-(1H-imidazol-4-yl)propyl]-2-(morpholin-4-yl)quinoxaline-6-carboxamide], on hNAMPT protein, the IC50 is less than 0.1 µM and the inhibition at 1 µM was 90%. Besides, in the assay with PC3 cells, the inhibition at 1.667 µM came out at 2%.
Take `COc1ccccc1-c1nc2cc(C(=O)NCCCn3ccnc3)ccc2nc1-c1ccccc1` [Compound I-36, N-[3-(1H-imidazol-1-yl)propyl]-3-(2-methoxyphenyl)-2-phenylquinoxaline-6-carboxamide]: at hNAMPT protein, the half-inhibitory concentration (IC50) fell in the range of 0.1 to 0.5 µM and the inhibition at 1 µM amounted to 51%. In addition, in the assay with PC3 cells, the inhibition at 1 µM worked out at 1%.
On to `O=C(NCCCn1ccnc1)c1ccc2nc(N3CC4CC3CO4)c(-c3ccccc3)nc2c1` (stereo not drawn) [Compound I-37, N-[3-(1H-imidazol-1-yl)propyl]-2-(2-oxa-5-azabicyclo[2.2.1]hept-5-yl)-3-phenylquinoxaline-6-carboxamide], for which, at hNAMPT protein, the IC50 was 0.5 to 1 µM and the inhibition at 1 µM worked out at 65%. The inhibition at 1 µM with PC3 cells is -6%.
